In BigSolDB 2.1:

Cc1ccc(-c2cc(C(F)(F)F)nn2-c2ccc(S(N)(=O)=O)cc2)cc1
solubility (mole fraction)
Conditions	293.2 K	298.2 K	303.2 K	308.2 K	313.2 K
in NMP	0.0593	0.0672	0.0776	0.0799	0.0917
in isopropanol	0.00851	0.00902	0.0156	0.0198	0.0233
